Results: the kinase profiling compilation of Christmann-Franck et al. (2016)

Legend:
Assay in all cases: KINOMEscan competition binding
Conditions in all cases: compound 10.0 µM
[1] = test system: ABL1 (human), P00519 [M351T]
[2] = test system: ABL1 (human), P00519 [Y253F]
[3] = target: ACVR1B (human) (UniProt P36896)
[4] = target: ADCK4 (human) (UniProt Q96D53)
[5] = target: AXL (human) (UniProt P30530)
[6] = target: BLK (human) (UniProt P51451)
[7] = target: CAMK1 (human) (UniProt Q14012)
[8] = target: CAMK2D (human) (UniProt Q13557)
[9] = target: CDC42BPA (human) (UniProt Q5VT25)
[10] = target: CDK11A (human) (UniProt Q9UQ88)
[11] = target: CDK8 (human) (UniProt P49336)
[12] = target: CDK9 (human) (UniProt P50750)
[13] = target: CSK (human) (UniProt P41240)
[14] = target: EPHA4 (human) (UniProt P54764)
[15] = target: EPHB4 (human) (UniProt P54760)
[16] = target: FER (human) (UniProt P16591)
[17] = target: FGFR1 (human) (UniProt P11362)
[18] = target: FYN (human) (UniProt P06241)
[19] = target: LATS2 (human) (UniProt Q9NRM7)
[20] = target: MAP2K2 (human) (UniProt P36507)
[21] = target: MAP3K9 (human) (UniProt P80192)
[22] = target: MAPK11 (human) (UniProt Q15759)
[23] = target: MAPK9 (human) (UniProt P45984)
[24] = target: MAPKAPK2 (human) (UniProt P49137)
[25] = target: MAPKAPK5 (human) (UniProt Q8IW41)
[26] = target: MARK2 (human) (UniProt Q7KZI7)
[27] = target: PDGFRA (human) (UniProt P16234)
[28] = target: PDPK1 (human) (UniProt O15530)
[29] = target: PIK3C2B (human) (UniProt O00750)
[30] = test system: PIK3CA (human), P42336 [E545K]
[31] = target: PLK1 (human) (UniProt P53350)
[32] = target: PRKAA1 (human) (UniProt Q13131)
[33] = target: PRKCE (human) (UniProt Q02156)
[34] = target: PRKX (human) (UniProt P51817)
[35] = test system: RET (human), P07949 [V804L]
[36] = test system: RET (human), P07949 [V804M]
[37] = target: RPS6KA1 KD1 (human) (UniProt Q15418)
[38] = target: RPS6KA3 KD1 (human) (UniProt P51812)
[39] = target: SLK (human) (UniProt Q9H2G2)
[40] = target: TNNI3K (human) (UniProt Q59H18)
[41] = target: WEE1 (human) (UniProt P30291)
[42] = target: ZAP70 (human) (UniProt P43403)

PRKCE (human), sequence (Q02156 whole entry, looked up): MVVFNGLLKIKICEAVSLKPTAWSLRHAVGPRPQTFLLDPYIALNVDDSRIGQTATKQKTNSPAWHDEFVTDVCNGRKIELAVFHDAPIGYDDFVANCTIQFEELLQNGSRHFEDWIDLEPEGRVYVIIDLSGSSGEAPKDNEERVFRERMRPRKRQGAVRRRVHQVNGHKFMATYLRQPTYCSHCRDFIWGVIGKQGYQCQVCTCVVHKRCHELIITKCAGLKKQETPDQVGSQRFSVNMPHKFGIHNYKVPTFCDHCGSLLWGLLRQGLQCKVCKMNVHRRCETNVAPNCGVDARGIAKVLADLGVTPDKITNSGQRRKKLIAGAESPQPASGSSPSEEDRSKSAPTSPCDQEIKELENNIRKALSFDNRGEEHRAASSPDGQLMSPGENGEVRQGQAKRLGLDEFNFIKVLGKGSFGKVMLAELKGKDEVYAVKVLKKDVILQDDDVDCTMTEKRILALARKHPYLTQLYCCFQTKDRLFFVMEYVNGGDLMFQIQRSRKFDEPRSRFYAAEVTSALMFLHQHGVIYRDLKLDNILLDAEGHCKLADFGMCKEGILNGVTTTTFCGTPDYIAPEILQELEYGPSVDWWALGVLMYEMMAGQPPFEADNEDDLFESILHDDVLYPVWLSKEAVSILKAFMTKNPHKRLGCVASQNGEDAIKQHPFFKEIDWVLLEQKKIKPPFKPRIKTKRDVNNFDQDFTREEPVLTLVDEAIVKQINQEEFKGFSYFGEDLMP
MAPK9 (human), sequence (P45984 whole entry, looked up): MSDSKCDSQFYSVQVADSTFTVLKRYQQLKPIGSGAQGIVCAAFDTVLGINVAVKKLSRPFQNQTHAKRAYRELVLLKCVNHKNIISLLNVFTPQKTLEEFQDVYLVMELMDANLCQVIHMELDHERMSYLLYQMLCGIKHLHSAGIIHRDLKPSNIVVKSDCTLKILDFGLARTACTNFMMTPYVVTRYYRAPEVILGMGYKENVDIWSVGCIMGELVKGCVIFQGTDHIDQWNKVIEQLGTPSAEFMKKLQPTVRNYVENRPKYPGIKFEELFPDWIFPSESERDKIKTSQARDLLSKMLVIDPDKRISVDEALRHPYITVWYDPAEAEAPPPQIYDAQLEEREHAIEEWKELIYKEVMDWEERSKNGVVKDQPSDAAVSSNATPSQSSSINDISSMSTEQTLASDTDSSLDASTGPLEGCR
MAPK11 (human), sequence (Q15759 whole entry, looked up): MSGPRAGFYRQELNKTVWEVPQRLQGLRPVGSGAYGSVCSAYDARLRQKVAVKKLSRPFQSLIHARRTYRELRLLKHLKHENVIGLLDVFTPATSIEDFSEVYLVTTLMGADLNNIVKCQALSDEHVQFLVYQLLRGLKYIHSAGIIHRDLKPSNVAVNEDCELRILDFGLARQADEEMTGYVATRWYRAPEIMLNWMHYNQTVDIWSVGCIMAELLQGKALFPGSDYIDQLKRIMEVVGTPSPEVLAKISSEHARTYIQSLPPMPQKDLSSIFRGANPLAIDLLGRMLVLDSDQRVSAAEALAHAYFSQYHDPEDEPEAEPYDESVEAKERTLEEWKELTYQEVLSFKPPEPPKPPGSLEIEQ
LATS2 (human), sequence (Q9NRM7 whole entry, looked up): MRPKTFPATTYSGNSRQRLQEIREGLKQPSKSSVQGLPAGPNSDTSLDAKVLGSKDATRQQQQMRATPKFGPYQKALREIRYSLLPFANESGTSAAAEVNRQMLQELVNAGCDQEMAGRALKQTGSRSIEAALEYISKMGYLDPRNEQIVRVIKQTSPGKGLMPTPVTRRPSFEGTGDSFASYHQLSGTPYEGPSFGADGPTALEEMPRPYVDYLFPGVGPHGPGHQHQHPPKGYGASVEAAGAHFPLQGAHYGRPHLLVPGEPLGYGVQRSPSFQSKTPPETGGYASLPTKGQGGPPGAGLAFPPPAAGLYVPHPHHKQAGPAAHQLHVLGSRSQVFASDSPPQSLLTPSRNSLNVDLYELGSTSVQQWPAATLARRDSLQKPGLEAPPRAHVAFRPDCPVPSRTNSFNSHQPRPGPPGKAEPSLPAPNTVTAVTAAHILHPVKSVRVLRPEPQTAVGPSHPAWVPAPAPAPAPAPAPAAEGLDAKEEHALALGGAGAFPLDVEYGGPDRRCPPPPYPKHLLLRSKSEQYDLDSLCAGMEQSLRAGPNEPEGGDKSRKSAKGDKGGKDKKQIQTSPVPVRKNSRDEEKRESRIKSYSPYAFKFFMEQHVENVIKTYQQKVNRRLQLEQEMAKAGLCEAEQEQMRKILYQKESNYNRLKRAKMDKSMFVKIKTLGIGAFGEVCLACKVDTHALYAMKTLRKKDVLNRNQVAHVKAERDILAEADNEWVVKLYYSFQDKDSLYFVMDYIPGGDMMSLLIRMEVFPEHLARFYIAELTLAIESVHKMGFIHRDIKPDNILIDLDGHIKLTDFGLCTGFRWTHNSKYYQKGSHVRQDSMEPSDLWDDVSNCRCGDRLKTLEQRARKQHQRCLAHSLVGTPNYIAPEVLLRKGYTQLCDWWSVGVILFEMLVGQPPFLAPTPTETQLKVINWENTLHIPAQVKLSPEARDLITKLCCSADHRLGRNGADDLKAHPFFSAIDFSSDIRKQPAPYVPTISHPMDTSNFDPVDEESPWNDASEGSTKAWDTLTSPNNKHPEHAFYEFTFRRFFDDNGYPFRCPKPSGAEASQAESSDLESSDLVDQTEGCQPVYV
CDC42BPA (human), sequence (Q5VT25 whole entry, looked up): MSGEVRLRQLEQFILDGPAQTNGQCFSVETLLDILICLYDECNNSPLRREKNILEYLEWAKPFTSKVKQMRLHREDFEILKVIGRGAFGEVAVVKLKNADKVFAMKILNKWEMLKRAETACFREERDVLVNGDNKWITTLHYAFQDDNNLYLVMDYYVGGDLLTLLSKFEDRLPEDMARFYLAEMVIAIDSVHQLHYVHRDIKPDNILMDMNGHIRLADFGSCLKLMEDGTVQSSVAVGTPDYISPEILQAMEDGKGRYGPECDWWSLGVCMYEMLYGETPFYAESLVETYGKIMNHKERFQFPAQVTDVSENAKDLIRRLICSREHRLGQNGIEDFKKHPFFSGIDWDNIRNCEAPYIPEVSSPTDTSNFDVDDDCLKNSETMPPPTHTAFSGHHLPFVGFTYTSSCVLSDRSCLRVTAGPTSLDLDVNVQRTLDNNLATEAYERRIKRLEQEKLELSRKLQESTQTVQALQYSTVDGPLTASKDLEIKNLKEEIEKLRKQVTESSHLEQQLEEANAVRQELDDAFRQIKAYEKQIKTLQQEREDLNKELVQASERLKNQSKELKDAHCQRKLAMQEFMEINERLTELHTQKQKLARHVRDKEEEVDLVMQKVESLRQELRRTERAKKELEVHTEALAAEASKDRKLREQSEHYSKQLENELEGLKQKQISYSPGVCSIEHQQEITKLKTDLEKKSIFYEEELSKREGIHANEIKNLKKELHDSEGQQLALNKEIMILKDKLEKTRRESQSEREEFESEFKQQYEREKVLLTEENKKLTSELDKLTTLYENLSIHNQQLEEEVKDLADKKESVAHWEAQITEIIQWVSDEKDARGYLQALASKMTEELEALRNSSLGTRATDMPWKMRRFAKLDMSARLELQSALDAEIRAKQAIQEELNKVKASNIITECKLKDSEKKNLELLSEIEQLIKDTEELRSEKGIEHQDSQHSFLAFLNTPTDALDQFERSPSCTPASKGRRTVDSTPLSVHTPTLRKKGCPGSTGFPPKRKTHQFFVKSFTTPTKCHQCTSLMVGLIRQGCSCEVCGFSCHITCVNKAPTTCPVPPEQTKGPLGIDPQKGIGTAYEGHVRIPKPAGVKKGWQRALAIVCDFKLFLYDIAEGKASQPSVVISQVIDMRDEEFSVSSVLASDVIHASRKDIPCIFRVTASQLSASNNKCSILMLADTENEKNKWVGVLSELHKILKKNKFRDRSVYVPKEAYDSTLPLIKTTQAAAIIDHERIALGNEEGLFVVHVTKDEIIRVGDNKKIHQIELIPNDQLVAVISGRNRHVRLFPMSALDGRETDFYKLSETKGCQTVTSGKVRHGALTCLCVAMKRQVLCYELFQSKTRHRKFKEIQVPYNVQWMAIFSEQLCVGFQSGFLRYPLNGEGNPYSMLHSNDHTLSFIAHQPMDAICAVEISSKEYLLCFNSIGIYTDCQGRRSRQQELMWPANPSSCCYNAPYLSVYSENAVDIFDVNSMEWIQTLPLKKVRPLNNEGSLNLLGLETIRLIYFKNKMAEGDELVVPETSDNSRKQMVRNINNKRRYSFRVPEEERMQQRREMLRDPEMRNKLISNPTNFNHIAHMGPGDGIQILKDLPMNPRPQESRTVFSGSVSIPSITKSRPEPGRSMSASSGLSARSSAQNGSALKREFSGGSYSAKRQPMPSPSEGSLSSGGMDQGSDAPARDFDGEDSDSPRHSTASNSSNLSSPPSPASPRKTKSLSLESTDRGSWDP
MAPKAPK5 (human), sequence (Q8IW41 whole entry, looked up): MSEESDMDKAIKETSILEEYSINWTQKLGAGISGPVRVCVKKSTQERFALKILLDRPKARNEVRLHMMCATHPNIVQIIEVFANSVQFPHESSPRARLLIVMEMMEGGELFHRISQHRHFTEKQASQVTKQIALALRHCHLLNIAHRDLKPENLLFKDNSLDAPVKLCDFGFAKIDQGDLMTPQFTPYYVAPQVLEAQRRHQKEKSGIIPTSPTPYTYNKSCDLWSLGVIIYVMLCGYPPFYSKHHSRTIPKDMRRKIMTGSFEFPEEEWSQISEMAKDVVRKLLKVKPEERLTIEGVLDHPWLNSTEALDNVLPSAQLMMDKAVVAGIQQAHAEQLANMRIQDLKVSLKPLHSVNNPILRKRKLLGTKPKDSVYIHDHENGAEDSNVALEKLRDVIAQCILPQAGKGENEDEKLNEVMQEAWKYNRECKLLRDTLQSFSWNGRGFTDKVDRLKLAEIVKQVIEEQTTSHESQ

For COc1cc(N2CCN(C)CC2)ccc1Nc1ncc2c(n1)N(C)c1ccccc1N(C)C2=O, the kinase still bound, per cent of control [1] was 78%, the kinase still bound, per cent of control [2] was 100% and the kinase still bound, per cent of control [3] was 100%. The kinase still bound, per cent of control [4] was 82%, the kinase still bound, per cent of control [5] was 95% and the kinase still bound, per cent of control [6] was 93%. It also gave a kinase still bound, per cent of control [7] of 100%, a kinase still bound, per cent of control [8] of 99% and a kinase still bound, per cent of control [9] of 100%. For the same compound, the kinase still bound, per cent of control [10] was 80%, the kinase still bound, per cent of control [11] was 88% and the kinase still bound, per cent of control [12] was 100%. The kinase still bound, per cent of control [13] was 95%, the kinase still bound, per cent of control [14] was 95% and the kinase still bound, per cent of control [15] was 100%. The kinase still bound, per cent of control [16] was 80%, the kinase still bound, per cent of control [17] was 100% and the kinase still bound, per cent of control [18] was 100%. For the same compound, the kinase still bound, per cent of control [19] was 75%, the kinase still bound, per cent of control [20] was 100% and the kinase still bound, per cent of control [21] was 100%. The kinase still bound, per cent of control [22] was 100%, the kinase still bound, per cent of control [23] was 87% and the kinase still bound, per cent of control [24] was 95%. The kinase still bound, per cent of control [25] was 100%, the kinase still bound, per cent of control [26] was 100% and the kinase still bound, per cent of control [27] was 100%. For the same compound, the kinase still bound, per cent of control [28] was 79%, the kinase still bound, per cent of control [29] was 100% and the kinase still bound, per cent of control [30] was 97%. For the same compound, the kinase still bound, per cent of control [31] was 100%, the kinase still bound, per cent of control [32] was 92% and the kinase still bound, per cent of control [33] was 60%. For the same compound, the kinase still bound, per cent of control [34] was 83%, the kinase still bound, per cent of control [35] was 100% and the kinase still bound, per cent of control [36] was 100%. For the same compound, the kinase still bound, per cent of control [37] was 97%, the kinase still bound, per cent of control [38] was 92% and the kinase still bound, per cent of control [39] was 100%. For the same compound, the kinase still bound, per cent of control [40] was 100%, the kinase still bound, per cent of control [41] was 92% and the kinase still bound, per cent of control [42] was 100%.
With COc1cc(N2CCC(O)CC2)ccc1Nc1ncc2c(n1)N1CCc3cccc(c31)C(=O)N2C the kinase still bound, per cent of control [1] was 93%, the kinase still bound, per cent of control [2] was 100% and the kinase still bound, per cent of control [3] was 100%. The kinase still bound, per cent of control [4] was 86%, the kinase still bound, per cent of control [5] was 100% and the kinase still bound, per cent of control [6] was 100%. For the same compound, the kinase still bound, per cent of control [7] was 78%, the kinase still bound, per cent of control [8] was 65% and the kinase still bound, per cent of control [9] was 100%. For the same compound, the kinase still bound, per cent of control [10] was 100%, the kinase still bound, per cent of control [11] was 100% and the kinase still bound, per cent of control [12] was 100%. For the same compound, the kinase still bound, per cent of control [13] was 90%, the kinase still bound, per cent of control [14] was 98% and the kinase still bound, per cent of control [15] was 100%. It also gave a kinase still bound, per cent of control [16] of 74%, a kinase still bound, per cent of control [17] of 95% and a kinase still bound, per cent of control [18] of 100%. For the same compound, the kinase still bound, per cent of control [19] was 100%, the kinase still bound, per cent of control [20] was 99% and the kinase still bound, per cent of control [21] was 96%. For the same compound, the kinase still bound, per cent of control [22] was 74%, the kinase still bound, per cent of control [23] was 51% and the kinase still bound, per cent of control [24] was 100%. It also gave a kinase still bound, per cent of control [25] of 95%, a kinase still bound, per cent of control [26] of 97% and a kinase still bound, per cent of control [27] of 98%. It also gave a kinase still bound, per cent of control [28] of 100%, a kinase still bound, per cent of control [29] of 100% and a kinase still bound, per cent of control [30] of 88%. It also gave a kinase still bound, per cent of control [31] of 0.2%, a kinase still bound, per cent of control [32] of 84% and a kinase still bound, per cent of control [33] of 91%. It also gave a kinase still bound, per cent of control [34] of 91%, a kinase still bound, per cent of control [35] of 100% and a kinase still bound, per cent of control [36] of 93%. It also gave a kinase still bound, per cent of control [37] of 94%, a kinase still bound, per cent of control [38] of 55% and a kinase still bound, per cent of control [39] of 95%. It also gave a kinase still bound, per cent of control [40] of 100%, a kinase still bound, per cent of control [41] of 100% and a kinase still bound, per cent of control [42] of 65%.
